From patent US20260034146A1, “NEUROACTIVE 19-ALKOXY-17-S[…], PRODRUGS THEREOF, AND METHODS OF TREATMENT USING SAME” (priority 2012, published 2026)

Assays:
[1] = target: rat α1β2γ2L type GABAA receptors expressed in Xenopus laevis oocytes (Rattus norvegicus (Rat), UniProt P62813+P63138, INS375LLRMFSFK); assay: Oocyte electrophysiology: potentiation of chloride currents mediated by 2 μM GABA, and direct gating; assay type: cell-based; conditions: ± SEM; for oocyte electrophysiology, ratio of currents in presence/absence of compound, 0.1 μM: 0.1 μM compound; for oocyte electrophysiology, ratio of currents in presence/absence of compound, 0.1 μM / oocyte electrophysiology, ratio of currents in presence/absence of compound, 1 μM / oocyte electrophysiology, ratio of currents in presence/absence of compound, 10 μM: 2 μM GABA control, N≥4 oocytes; for oocyte electrophysiology, ratio of currents in presence/absence of compound, 1 μM: 1 μM compound; for oocyte electrophysiology, ratio of currents in presence/absence of compound, 10 μM: 10 μM compound; for (gating) 10 μM, ratio of compound only current/2 μM GABA current: direct current gated by 10 μM compound in the absence of GABA, N≥4
Protocol: The compounds of the present disclosure were evaluated for the ability to potentiate chloride currents mediated by 2 μM GABA at rat α1β2γ2L type GABAA receptors expressed in Xenopus laevis oocytes and the results are shown in Table 2.
The GABA concentration used for the control response was 2 μM. Each compound was evaluated on at least four different oocytes at the concentrations indicated, and the results reported are the ratio of currents measured in the presence/absence of added compound. Gating represents direct current gated by 10 μM compound in the absence of GABA, and this current is reported as the ratio of compound only current/2 μM GABA current. Error limits are calculated as standard error of the mean (N≥4). Methods used are known in the art (see Jiang, X., et al.).

[2] = target: picrotoxin binding site on GABAA receptors; assay: [35S]-TBPS displacement (inhibition of [35S]-TBPS binding); conditions: duplicate experiments performed in triplicate; ± standard error of the mean
Protocol: The IC50 values for non-competitive displacers of [^35S]-TBPS from the picrotoxin binding site on GABAA receptors are reported in Table 1.
^aResults presented are from duplicate experiments performed in triplicate. Error limits are calculated as standard error of the mean. Methods used are known in the art (see Jiang, X., et al., Neurosteroid analogues. 9. Conformationally constrained pregnanes: structure-activity studies of 13,24-cyclo-18,21-dinorcholane analogues of the GABA modulatory and anesthetic steroids (3α,5α)- and […]. J. Med. Chem., 46: 5334-48 (2003)—the contents of which are hereby incorporated by reference in their entirety).

[3] = system: Tadpole; assay: Tadpole loss of righting reflex (LRR) and loss of swimming reflex (LSR); assay type: in vivo; conditions: N=10 or more animals at each of five or more concentrations, ± SEM; for Tadpole LSR EC50 (μM): loss of swimming reflex; for Tadpole LRR EC50 (μM): loss of righting reflex
Protocol: Table 3 discloses the anesthetic effects of the compounds of the present disclosure. In particular, the anesthetic effect of the compounds of the present disclosure on Loss of Righting Reflex (LRR) and Loss of Swimming Reflex (LSR).
Methods used are known in the art (see Jiang, X., et al.). Error limits are calculated as standard error of the mean (N=10 or more animals at each of five or more different concentrations).

[4] = system: male beagle dogs; assay: Dog duration of lateral recumbence, intravenous bolus; assay type: in vivo; conditions: dog dose 5 mg/kg
Protocol: The plasma pharmacokinetics and a qualitative assessment of sedation were obtained in male beagle dogs according to the following procedure. Dogs were dosed by intravenous bolus dose (60 seconds) via the cephalic vein at 5 mg/kg dose in an appropriate vehicle. In order to assess sedation, dogs were gently restrained for dose administration. If decreased muscle tone, limb weakness, or head drop was observed during dose administration, onset of lateral recumbence was recorded. […] Sluggish or incomplete righting to the sternal position qualifies as lateral recumbence. After onset of lateral recumbence, animals were assessed every 5 minutes in the same manner. The duration of lateral recumbence was recorded as the time interval between onset of lateral recumbence and the return to sternal position.

[5] = system: male Sprague Dawley rats; assay: Rat loss of righting reflex (LRR), intravenous bolus; assay type: in vivo
Protocol: The plasma pharmacokinetics and a qualitative assessment of sedation were obtained in male Sprague Dawley rats according to the following procedure. Rats were dosed by intravenous bolus dose (60 seconds) via the foot dorsal vein at doses ranging from 5 to 15 mg/kg in an appropriate vehicle. In order to assess sedation, rats were gently restrained by hand to a lateral position for dose administration. […] If the animal was unable to return to an upright position, the time was recorded as the onset of loss of righting reflex (LRR). […] Sluggish or incomplete righting twice consecutively within a 30 second interval qualifies as a loss of righting reflex. After onset of LRR, animals were assessed every 5 minutes in the same manner. Recovery of righting reflex is defined as the ability of a rat to right itself completely within 20 seconds of being placed in dorsal recumbency. The duration of LRR is defined as the time interval between LRR and the return of righting reflex.

Row | SMILES | oocyte electrophysiology, ratio of currents in presence/absence of compound, 0.1 μM [1] | oocyte electrophysiology, ratio of currents in presence/absence of compound, 1 μM [1] | oocyte electrophysiology, ratio of currents in presence/absence of compound, 10 μM [1] | (gating) 10 μM, ratio of compound only current/2 μM GABA current [1] | IC50 [2] [nM] | Tadpole LSR EC50 (μM) [3] | Duration of Dog Lateral Recumbence [4] | Duration of Rat LRR ([5]; rat dose 15 mg/kg) | Duration of Rat LRR ([5]; rat dose 5 mg/kg) | Tadpole LRR EC50 (μM) [3]
1 | COC[C@]12CCC(O)CC1CC[C@@H]1[C@@H]2CC[C@]2(C)C(=O)CC[C@@H]12 (stereo in doubt) [30, MQ-94, (3α,5β)-3-Hydroxy-19-methoxyandrostan-17-one] | 0.90 ± 0.02 | 0.88 ± 0.01 | 0.84 ± 0.02 | 0.03 | > 30000 | None |  |  |  | 
2 | COC[C@]12CCC(=O)C[C@@H]1CC[C@H]1[C@@H]3CC[C@H](OC)[C@@]3(C)CC[C@@H]12 [7, MQ-88, (5α,17β)-17,19-Dimethoxyandrostan-3-one] | 1.00 ± 0 | 0.85 ± 0.01 | 1.07 ± 0.02 | 0.04 ± 0.03 | 8700 |  |  |  |  | 
3 | COC[C@]12CC[C@@H](O)C[C@@H]1CC[C@H]1[C@@H]3CC[C@H](OC)[C@@]3(C)CC[C@@H]12 [8, MQ-89, (5α,17β)-17,19-Dimethoxyandrostan-3-ol] | 1.65 ± 0.08 | 7.63 ± 0.77 | 20.9 ± 2.73 | 0.22 ± 0.01 | 56 ± 2 |  | C (C >20 min) | C (C >20 min) |  | 
4 | COC[C@]12CC[C@@H](O)C[C@@H]1CC[C@@H]1[C@@H]2CC[C@@]2(C)[C@H]1CC[C@@]21CO1 [12, MQ-90, (3α,5α,17β)-19-Methoxyspiro[androstane-17,2′-oxiran]-3-ol] | 1.24 ± 0.05 | 7.40 ± 1.43 | 18.7 ± 6.19 | 0.14 ± 0.04 | 79 ± 4 |  |  |  |  | 
5 | COC[C@]12CC[C@@H](O)C[C@@H]1CC[C@@H]1[C@@H]2CC[C@]2(C)C(C#N)=CC[C@@H]12 [15, MQ-91, (3α,5α)-3-Hydroxy-19-methoxyandrost-16-ene-17-carbonitrile] | 1.27 ± 0.13 | 5.34 ± 0.86 | 25.6 ± 3.23 | 0.10 ± 0.09 | 118 ± 13 |  |  |  |  | 
6 | COC[C@]12CC[C@@H](O)C[C@@H]1CC[C@H]1[C@@H]3CC[C@H](C#N)[C@@]3(C)CC[C@@H]12 [16, MQ-92, (3α,5α,17β)-3-Hydroxy-19-methoxyandrostane-17-carbonitrile] | 1.52 ± 0.02 | 9.79 ± 0.53 | 25.7 ± 2.11 | 0.25 ± 0.11 | 63 ± 7 |  | B (B 10-20 min) |  | B (B 10-20 min) | 
7 | COC[C@]12CC[C@@H](O)C[C@@H]1CC[C@H]1[C@@H]3CC[C@H](C(C)=O)[C@@]3(C)CC[C@@H]12 [17, MQ-93, (3α,5α)-3-Hydroxy-19-methoxypregnan-20-one] | 2.15 ± 0.19 | 12.8 ± 1.74 | 33.8 ± 5.44 | 0.23 ± 0.07 | 47 ± 4 |  |  | C (C >20 min) |  | 
8 | COC[C@]12CC[C@@H](O)C[C@@H]1CC[C@H]1[C@@H]3CC[C@H](C(=O)CO)[C@@]3(C)CC[C@@H]12 [20, MQ-98, (3α,5α)-3,21-Dihydroxy-19-methoxypregnan-20-one] | 0.98 ± 0.01 | 2.76 ± 0.27 | 19.0 ± 2.31 | 0.09 ± 0.05 | 345 ± 61 |  |  | A (A <10 min) |  | 
9 | COC[C@]12CCC(=O)C=C1CC[C@@H]1[C@@H]2CC[C@]2(C)[C@@H](OC)CC[C@@H]12 [24, MQ-99, (17β)-17,19-Dimethoxyandrost-4-en-3-one] | 0.88 ± 0.08 | 0.63 ± 0.06 | 1.06 ± 0.17 | 0.11 ± 0.17 | 14500 | None |  |  |  | None
10 | COC[C@]12CC[C@@H](O)CC1=CC[C@@H]1[C@@H]2CC[C@]2(C)[C@@H](OC)CC[C@@H]12 [25, MQ-101, (3α,17β)-17,19-Dimethoxyandrost-5-en-3-ol] | 0.94 ± 0.07 | 1.97 ± 0.08 | 15.7 ± 0.90 | 0.08 ± 0.07 | 583 ± 71 |  |  |  |  | 
11 | COC[C@]12CC[C@H](O)CC1=CC[C@@H]1[C@@H]2CC[C@]2(C)[C@@H](OC)CC[C@@H]12 [26, MQ-100, (3β,17β)-17,19-Dimethoxyandrost-5-en-3-ol] | 0.83 ± 0.03 | 0.76 ± 0.02 | 0.78 ± 0.02 | 0.02 ± 0.02 | 17800 | None |  |  |  | None
12 | COC[C@]12CC[C@@H](O)C[C@@H]1CC[C@H]1[C@@H]3CC[C@H]([N+](=O)[O-])[C@@]3(C)CC[C@@H]12 [29, MQ-97, (3α,5α,17β)-19-methoxy-17-nitroandrostan-3-ol] | 2.07 ± 0.09 | 15.7 ± 1.45 | 26.6 ± 4.34 | 0.11 ± 0.01 | 37 ± 4 |  | C (C >20 min) | B (B 10-20 min) |  | 
13 | COC[C@]12CC[C@H](O)C[C@@H]1CC[C@H]1[C@@H]3CC[C@H](OC)[C@@]3(C)CC[C@@H]12 [31, MQ-96, (3β,5α,17β)-17,19-Dimethoxyandrostan-3-ol] | 0.91 ± 0.02 | 0.97 ± 0.05 | 1.10 ± 0.05 | 0.02 ± 0 | 7800 |  |  |  |  | 
